Data from PubChem BioAssay (NCI).
Several values for one entry are separate records, joined by “and”; a condition that tells them apart may be missing. Equal values may be shown once.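 Dose response: 5 concentrations. Exposure: 48 h. Format: 96-well plates. Endpoint: linear interpolation; highest concentration if not reached. The concentration for 50% growth inhibition is given as GI50. TGI denotes the concentration required for complete inhibition of growth.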

Tests used:
Assay in all cases: NCI tumour cell line growth inhibition, 48 h
LXFL 529 NSCLC = system: LXFL 529 NSCLC
SNB-78 CNS = system: SNB-78 CNS
DLD-1 colon = system: DLD-1 colon
XF 498 CNS = system: XF 498 CNS
RXF-631 renal = system: RXF-631 renal
UACC-257 melanoma = system: UACC-257 melanoma
HOP-18 NSCLC = system: HOP-18 NSCLC
KM20L2 colon = system: KM20L2 colon
ACHN renal = system: ACHN renal
DMS 273 small cell lung = system: DMS 273 small cell lung
DMS 114 small cell lung = system: DMS 114 small cell lung
M19-MEL melanoma = system: M19-MEL melanoma
NCI-H23 lung = system: NCI-H23 lung
HS 578T breast = system: HS 578T breast
T-47D breast = system: T-47D breast
SN12K1 renal = system: SN12K1 renal
P388 leukemia = system: P388 leukemia
P388/ADR leukemia = system: P388/ADR leukemia

Compound: C=C1C(=O)OC2/C=C(\C)C(O)/C=C\C(C)(O)CC(OC(=O)/C(C)=C/C)C12 (stereo not given)
- TGI (LXFL 529 NSCLC): 29.1 µM
- TGI (SNB-78 CNS): > 100 µM
- TGI (DLD-1 colon): 28.3 µM
- TGI (XF 498 CNS): > 58.4 µM
- TGI (RXF-631 renal): > 100 µM
- TGI (UACC-257 melanoma): > 77.1 µM
- TGI (HOP-18 NSCLC): > 100 µM
- TGI (KM20L2 colon): > 38.5 µM
- TGI (ACHN renal): 54.1 µM
- TGI (DMS 273 small cell lung): 37.3 µM
- TGI (DMS 114 small cell lung): > 78.2 µM
- TGI (M19-MEL melanoma): 37 µM
- TGI (NCI-H23 lung): > 100 µM

Compound: COc1cc2c(cc1OC)C(Cl)C(c1cc(OC)c(OC)c(OC)c1)=C2Cl (stereo not given)
- TGI (LXFL 529 NSCLC): 24.6 µM
- TGI (SNB-78 CNS): 46.4 µM
- TGI (DLD-1 colon): 51.4 µM
- TGI (RXF-631 renal): 38.2 µM
- TGI (HOP-18 NSCLC): 32.3 µM
- TGI (KM20L2 colon): 36.6 µM
- TGI (ACHN renal): 28.8 µM
- TGI (DMS 273 small cell lung): 34.6 µM
- TGI (DMS 114 small cell lung): 26.2 µM
- TGI (M19-MEL melanoma): 28.7 µM
- TGI (NCI-H23 lung): 51.8 µM

Compound: CCN(CC)CCNc1ccc(C)c2sc3ccc(O)cc3c(=O)c12
- TGI (LXFL 529 NSCLC): 2.54 µM
- TGI (SNB-78 CNS): 7.88 µM
- TGI (DLD-1 colon): 3.47 µM
- TGI (XF 498 CNS): 2.56 µM
- TGI (UACC-257 melanoma): 2.99 µM
- TGI (HOP-18 NSCLC): 5.94 µM
- TGI (KM20L2 colon): 5.46 µM
- TGI (ACHN renal): 1.63 µM
- TGI (DMS 273 small cell lung): 1.91 µM
- TGI (DMS 114 small cell lung): 2.27 µM
- TGI (M19-MEL melanoma): 2.36 µM
- TGI (NCI-H23 lung): 14 µM

Compound: COc1cc(CC2c3cc(OC)c(OC)cc3CCN2C)c(Oc2cc3c(cc2OC)-c2c(OC)c(OC)c(OC)c4c2C(C3)N(C)CC4)cc1OC (stereo not given)
- TGI (LXFL 529 NSCLC): 27.1 µM
- TGI (SNB-78 CNS): 34.5 µM
- TGI (DLD-1 colon): 29.8 µM
- TGI (XF 498 CNS): 26.6 µM
- TGI (UACC-257 melanoma): 13.6 µM
- TGI (HOP-18 NSCLC): 31.1 µM
- TGI (KM20L2 colon): 17.8 µM
- TGI (ACHN renal): 30.9 µM
- TGI (DMS 273 small cell lung): 26.2 µM
- TGI (DMS 114 small cell lung): 26 µM
- TGI (M19-MEL melanoma): 28.6 µM
- TGI (NCI-H23 lung): 34.9 µM

Compound: Cc1nc(-c2nc([N+](=O)[O-])c([N+](=O)[O-])[nH]2)cs1
- TGI (LXFL 529 NSCLC): > 100 µM
- TGI (SNB-78 CNS): > 100 µM
- TGI (DLD-1 colon): > 100 µM
- TGI (XF 498 CNS): > 100 µM
- TGI (RXF-631 renal): > 100 µM
- TGI (UACC-257 melanoma): > 100 µM
- TGI (KM20L2 colon): > 100 µM
- TGI (ACHN renal): > 100 µM
- TGI (DMS 273 small cell lung): > 100 µM
- TGI (DMS 114 small cell lung): > 100 µM
- TGI (M19-MEL melanoma): > 100 µM
- TGI (NCI-H23 lung): > 100 µM

Compound: O=C1c2cc(CCl)sc2C(=O)c2ccsc21
- TGI (LXFL 529 NSCLC): 0.609 µM
- TGI (SNB-78 CNS): 0.746 µM
- TGI (DLD-1 colon): 2.16 µM
- TGI (HS 578T breast): 0.498 µM
- TGI (XF 498 CNS): 3.1 µM
- TGI (T-47D breast): 0.562 µM
- TGI (UACC-257 melanoma): 0.327 µM
- TGI (HOP-18 NSCLC): 0.797 µM
- TGI (KM20L2 colon): 2.84 µM
- TGI (ACHN renal): 1.25 µM
- TGI (DMS 273 small cell lung): 1.12 µM
- TGI (DMS 114 small cell lung): 0.298 µM
- TGI (NCI-H23 lung): 0.136 µM

Compound: Nc1ccn(C2OC(COP(=O)(O)Oc3ccccc3)C(O)C2O)c(=O)n1 (stereo not given)
- TGI (SNB-78 CNS): > 100 µM
- TGI (DLD-1 colon): > 100 µM
- TGI (UACC-257 melanoma): > 100 µM
- TGI (HOP-18 NSCLC): 98.1 µM
- TGI (KM20L2 colon): > 100 µM
- TGI (SN12K1 renal): > 100 µM
- TGI (P388 leukemia): 15.7 µM
- TGI (DMS 273 small cell lung): > 100 µM
- TGI (P388/ADR leukemia): > 100 µM
- TGI (DMS 114 small cell lung): > 100 µM
- TGI (M19-MEL melanoma): > 100 µM
- TGI (NCI-H23 lung): > 100 µM

Compound: CC(=O)c1cccc(NC2C(N)C(NC(=O)N(C)C)(C(C)O)C(C)(O)C2(O)COC(=O)c2c(C)cccc2O)c1 (stereo not given)
- TGI (LXFL 529 NSCLC): 1.01 µM
- TGI (SNB-78 CNS): 0.0541 µM
- TGI (HS 578T breast): 0.0122 µM
- TGI (T-47D breast): 0.00834 µM
- GI50 (UACC-257 melanoma): 0.0314 µM
- TGI (KM20L2 colon): 0.372 µM
- TGI (ACHN renal): 0.334 µM and 0.539 µM
- TGI (DMS 114 small cell lung): 0.0855 µM
- TGI (M19-MEL melanoma): 0.203 µM

Compound: C/C(=N\Nc1ccc([N+](=O)[O-])cc1)C(=O)N(C)Nc1ccccc1
- TGI (LXFL 529 NSCLC): > 100 µM
- TGI (DLD-1 colon): > 100 µM
- TGI (XF 498 CNS): > 100 µM
- TGI (UACC-257 melanoma): > 100 µM
- TGI (HOP-18 NSCLC): > 100 µM
- TGI (KM20L2 colon): > 100 µM
- TGI (ACHN renal): > 100 µM
- TGI (DMS 273 small cell lung): > 100 µM
- TGI (DMS 114 small cell lung): > 100 µM
- TGI (M19-MEL melanoma): > 100 µM
- TGI (NCI-H23 lung): > 100 µM

Compound: Cc1ccc2[nH]c3c(C)c4ccncc4c(C)c3c2c1
- TGI (LXFL 529 NSCLC): 2.42 µM
- TGI (SNB-78 CNS): 4.64 µM
- TGI (DLD-1 colon): 2.34 µM
- TGI (XF 498 CNS): 3 µM
- TGI (UACC-257 melanoma): 2.94 µM
- TGI (HOP-18 NSCLC): 4.6 µM
- TGI (KM20L2 colon): 5.57 µM
- TGI (SN12K1 renal): 2.29 µM
- TGI (ACHN renal): 2.28 µM
- TGI (P388 leukemia): 3.09 µM
- TGI (DMS 273 small cell lung): 2.13 µM
- TGI (P388/ADR leukemia): 3.62 µM
- TGI (DMS 114 small cell lung): 2.71 µM
- TGI (M19-MEL melanoma): 2.75 µM
- TGI (NCI-H23 lung): 2.98 µM

Compound: C[C@@H]1CCC2[C@@H](C)C(=O)O[C@@H]3C4C[C@@H]1[C@@]23OO[C@@]4(C)O (stereo not given in full)
- TGI (HS 578T breast): > 100 µM
- TGI (T-47D breast): > 100 µM
- TGI (UACC-257 melanoma): > 100 µM
- TGI (ACHN renal): > 100 µM
- TGI (NCI-H23 lung): > 100 µM
